Reference: paper PMC2010101 (British Journal of Cancer, 1979)
Where two headings read alike, the source gives them in different places.

Biological target: T1, low-Km cAMP phosphodiesterase
T1 construct: gene Pde3b; not purified, mixture of isoenzymes
Experiment: [3H]cAMP hydrolysis, paper chromatography
Type: biochemical, Rattus norvegicus
Details: 0.25 µM cAMP, 100 mM Tris-HCl pH 7.5, 4 mM MgCl2, 30 °C, 5 min, crude fraction, read-out: I50

SMILES	IC50 (competitive)	IC50
CN(C)N=Nc1[nH]cnc1C(N)=O [DTIC, 5-(3,3-dimethyl-1-triazeno)imidazole-4-carboxamide]	790 µM	–
Cn1c(=O)c2[nH]cnc2n(C)c1=O [theophylline]	–	350 µM
